Columns and labels:
[1] = test system: MDA-MB-468 (triple negative breast) cancer xenograft; assay: MDA-MB-468 mouse xenograft model; format: in vivo, CB-17 SCID mice; settings: 30 mg/kg QDx5 or 15 mg/kg QDx5 PO for 9 weeks; SCID mice with MDA-MB-468 tumors; versus vehicle
Protocol: The oncological impact of Compound 116 was tested using a MDA-MB-468 (triple negative breast) cancer xenograft model in CB-17 SCID mice. MDA-MB-468 (ATCC # HTB-102) breast adenocarcinoma cells were obtained from ATCC. These cells were grown in high glucose DMEM medium supplemented with 10% fetal bovine serum, 1% penicillin and streptomycin, and 2 mM L-glutamine. Cells were sub-cultured by dilution at a ratio of 1:4. MDA-MB-468 cells were harvested by trypsinization and counted using a hemocytometer. Cells were resuspended in PBS at a concentration of 4×10^8 cells per mL. Cells were placed on ice and mixed with an equal volume of Matrigel (BD Biosciences CB-40234). This mixture was kept on ice and injected into the left flank of mice in a volume of 0.2 mL, equivalent to 4×10^7 cells per mouse. When the tumors reached a mean size of between 100 and 200 mm^3, mice were randomly and prospectively divided. Tumor bearing mice were treated with vehicle or Compound 116 on M-F (QDx5/week) for 9 weeks. Compound 116 was administered orally (PO) at initial doses of 15 and 30 mg/kg five times a week. Animals' weights and condition were recorded daily, tumors were measured once every two days with micro-calipers, and tumor volume was calculated as (length×width×width)/2.

Z138 cells = assay: MTT cell proliferation assay, Z138; format: cell-based; settings: Homo sapiens, Z-138, Z138 cells; eight concentrations 1 nM to 30 μM; incubation approximately 64-72 hours; read-out: MTT Assay IC50, Z138
How it was run: (§1)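 Seeding 5,000-10,000 cells/well, overnight attachment; 8 concs, 1 nM–30 μM. MTT ~4 h, formazan solubilized, OD 490 nm. % inhibition vs negative control, mostly duplicate, mean±SE.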

MS751 cells = assay: MTT cell proliferation assay, MS751; format: cell-based, human; settings: Homo sapiens, MS751, MS751 cells; eight concentrations 1 nM to 30 μM; incubation approximately 64-72 hours; read-out: MTT Assay IC50, MS751
How it was run: as §1

3T3 cells = assay: MTT cell proliferation assay, 3T3; format: cell-based, mouse; settings: Mus musculus, NIH3T3, 3T3 cells; eight concentrations 1 nM to 30 μM; incubation approximately 64-72 hours; read-out: MTT Assay IC50, 3T3
How it was run: as §1

M24 cell line = assay: MTT cell proliferation assay, M24; format: cell-based; settings: Homo sapiens, incubation approximately 64-72 hours
Protocol: (§2) The MTT cell proliferation assay was used to study the cytotoxic properties of the compounds. The assay was performed according to the method described by Roche Molecular Biochemicals, with minor modifications. The assay is based on the cleavage of the tetrazolium salt, MTT, in the presence of an electron-coupling reagent. The water-insoluble formazan salt produced must be solubilized in an additional step. Cells grown in a 96-well tissue culture plate were incubated with the MTT solution for approximately 4 hours. After this incubation period, a water-insoluble formazan dye formed. After solubilization, the formazan dye was quantitated using a scanning multi-well spectrophotometer (ELISA reader). […] The cells were seeded at 5,000-10,000 cells in each well of 96-well plate in 100 μL of fresh culture medium and were allowed to attach overnight. The stock solutions of the compounds were diluted in 100 μL cell culture medium to obtain eight concentrations of each test compound, ranging from 1 nM to 30 μM. […] All optical densities were measured at 490 nm using a Vmax Kinetic Microplate Reader (Molecular Devices). In most cases, the assay was performed in duplicate and the results were presented as a mean percent inhibition to the negative control±SE. The following formula was used to calculate the percent of inhibition: Inhibition (%)=(1-(ODo/OD)) ×100. […]

HCT-15 cell line = assay: MTT cell proliferation assay, HCT-15; format: cell-based; settings: Homo sapiens, incubation approximately 64-72 hours
Protocol: as §2

HEP 3B cells = assay: MTT cell proliferation assay, HEP 3B; format: cell-based; settings: Homo sapiens, Hep3B, incubation approximately 64-72 hours
Protocol: (§3) The MTT cell proliferation assay was used to study the cytotoxic properties of the compounds. The assay was performed according to the method described by Roche Molecular Biochemicals, with minor modifications. The assay is based on the cleavage of the tetrazolium salt, MTT, in the presence of an electron-coupling reagent. The water-insoluble formazan salt produced must be solubilized in an additional step. Cells grown in a 96-well tissue culture plate were incubated with the MTT solution for approximately 4 hours. After this incubation period, a water-insoluble formazan dye formed. After solubilization, the formazan dye was quantitated using a scanning multi-well spectrophotometer (ELISA reader). […] The cells were seeded at 5,000-10,000 cells in each well of 96-well plate in 100 μL of fresh culture medium and were allowed to attach overnight. The stock solutions of the compounds were diluted in 100 μL cell culture medium to obtain eight concentrations of each test compound, ranging from 1 nM to 30 μM. […] All optical densities were measured at 490 nm using a Vmax Kinetic Microplate Reader (Molecular Devices). In most cases, the assay was performed in duplicate and the results were presented as a mean percent inhibition to the negative control±SE. The following formula was used to calculate the percent of inhibition: Inhibition (%)=(1-(ODo/OD)) ×100.
(§4) The M24 cell line is derived from human melanoma cells. The U2OS cell line is a human osteosarcoma cell line expressing wild type p53 and Rb, but lacking p16. The MM1S cell line is a multiple myeloma cell line; the parent cell line, MM.1, was established from peripheral blood of a multiple myeloma patient who had become resistant to steroid-based therapy. The RPMI8226 cell line is derived from human B lymphocyte cells. NHDF cells are normal human dermal fibroblast cells. The MRC-5 cell line is derived from normal lung tissue of a fetus. The LN18 cell line is a human malignant glioma cell line. The DU-145 cell line is a human prostate cancer cell line. A549 cells are human adenocarcinomic human alveolar basal epithelial cells. […]

Hep G2 cells = assay: MTT cell proliferation assay, Hep G2; format: cell-based; settings: Homo sapiens, HepG2, incubation approximately 64-72 hours
Protocol: as §3
The M24 cell line is derived from human melanoma cells. The U2OS cell line is a human osteosarcoma cell line expressing wild type p53 and Rb, but lacking p16. The MM1S cell line is a multiple myeloma cell line; the parent cell line, MM.1, was established from peripheral blood of a multiple myeloma patient who had become resistant to steroid-based therapy. The RPMI8226 cell line is derived from human B lymphocyte cells. NHDF cells are normal human dermal fibroblast cells. The MRC-5 cell line is derived from normal lung tissue of a fetus. The LN18 cell line is a human malignant glioma cell line. The DU-145 cell line is a human prostate cancer cell line. A549 cells are human adenocarcinomic human alveolar basal epithelial cells. The MOLT4 cell line is a human acute lymphoblastic leukemia cell line. The THP1 cell line is a human leukemic monocytic cell line derived from peripheral blood. The OCIAML5 cell line is a human acute myeloid leukemia cell line. The MDA-MB-231 cell line is a human breast adenocarcinoma cell line. The MDA-MB-468 cell line is a human breast carcinoma cell line. HL-60 cells are human promyelocytic leukemia cells. Hep G2 cells are human hepatocellular carcinoma cells. HEP 3B cells are human hepatocellular carcinoma cells. The DLD-1 cell line is a colorectal adenocarcinoma cell line. The HCT-15 cell line is a human colon carcinoma cell line. The Colo-205 cell line is derived from a human adenocarcinoma of the colon. […]

DU-145 cell line = assay: MTT cell proliferation assay, DU-145; format: cell-based; settings: Homo sapiens, incubation approximately 64-72 hours
Protocol: as §2

[2] = test system: PAK4 interactors and downstream proteins; assay: Immunoblots of PAK4 interactors and downstream proteins in U2OS cells; format: cell-based, human; settings: 0.5 μM or 5 μM, 72 hours
Protocol: Immunoblots were used to measure the effects of exemplary compounds on protein steady-state levels and phophorylation of PAK4 interactor and downstream proteins. Specifically, U2OS (osteosarcoma) cells were split and plated on day 1. After overnight attachment to the tissue culture plate, cells were treated with either DMSO (0), 37 nM, 111 nM, 333 nM, 1 μM, or 3 μM Compound 246 for 72 hours. Cells were collected, washed and lysed in RIPA buffer. After obtaining the protein concentration by BCA assay, lysates were boiled in loading buffer and run on SDS-PAGE. The gels were transferred to nitrocellulose membranes and blotted with antibodies raised against phosphor-PAK4, PAK4, phophos-beta-catenin, beta-catenin, GEF-H1, phospho-Akt, Akt, phospho-ERK1/2, ERK1/2, phospho-cofilin, cofilin, phospho-histone H3, histone H3, cyclin D1, Mcl-1, Bcl-2, p21, survivin, caspase 8, caspase 3, PARP, and beta-actin (loading control).
In another experiment, U2OS (osteosarcoma) cells were split and plated on day 1. After overnight attachment to the tissue culture plate, cells were treated with DMSO (Ct), 0.5 μM, or 5 μM of Compound 124, 369, 226, 246, or 907 for 72 hours. Cells were collected, washed and lysed in RIPA buffer. After obtaining the protein concentration by BCA assay, lysates were boiled in loading buffer and run on SDS-PAGE. The gels were transferred to nitrocellulose membranes and blotted with antibodies raised against phophos-beta-catenin, cyclin D1, PAK4, phospho-cofilin, and beta-actin (loading control).

MRC-5 cell line = assay: MTT cell proliferation assay, MRC-5; format: cell-based; settings: Homo sapiens, MRC5, incubation approximately 64-72 hours
Protocol: as §2

LoVo cell line = assay: MTT cell proliferation assay, LoVo; format: cell-based; settings: Homo sapiens, incubation approximately 64-72 hours
Protocol: as §2

MM1S cell line = assay: MTT cell proliferation assay, MM1S; format: cell-based; settings: Homo sapiens, MM1.S, incubation approximately 64-72 hours
Protocol: as §3, §4

U2OS cell line = assay: MTT cell proliferation assay, U2OS; format: cell-based; settings: Homo sapiens, incubation approximately 64-72 hours
Protocol: as §2

MDA-MB-468 cell line = assay: MTT cell proliferation assay, MDA-MB-468; format: cell-based; settings: Homo sapiens, incubation approximately 64-72 hours
Protocol: as §2

NHDF cells = assay: MTT cell proliferation assay, NHDF; format: cell-based; settings: Homo sapiens, incubation approximately 64-72 hours
Protocol: as §2

RPMI8226 cell line = assay: MTT cell proliferation assay, RPMI8226; format: cell-based; settings: Homo sapiens, RPMI-8226, incubation approximately 64-72 hours
Protocol: as §2

Colo-205 cell line = assay: MTT cell proliferation assay, Colo-205; format: cell-based; settings: Homo sapiens, incubation approximately 64-72 hours
Protocol: as §2

MDA-MB-231 cell line = assay: MTT cell proliferation assay, MDA-MB-231; format: cell-based; settings: Homo sapiens, incubation approximately 64-72 hours
Protocol: as §2

DLD-1 cell line = assay: MTT cell proliferation assay, DLD-1; format: cell-based; settings: Homo sapiens, incubation approximately 64-72 hours
Protocol: as §2

CC(=O)c1ccc(-c2cc(Cl)c3c(c2)CC(CNC(=O)/C=C/c2ccc(N)nc2)O3)s1 (stereo not drawn) [Compound 116, (E)-N-((5-(5-acetylthiophen-2-yl)-7-chloro-2,3-dihydrobenzofuran-2-yl)methyl)-3-(6-aminopyridin-3-yl)acrylamide]
mean tumor volume [1]: reduced
IC50 (Z138 cells): 100 to 5000 nM
IC50 (MS751 cells): 100 to 5000 nM
IC50 (3T3 cells): 5000 to 30000 nM

CC(O)c1ccc(-c2cc(Cl)c3c(c2)CC(CNC(=O)/C=C/c2cccnc2)O3)s1 (stereo not drawn) [Compound 124]
IC50 (M24 cell line): 100 to 5000 nM
IC50 (Z138 cells): < 100 nM
IC50 (HCT-15 cell line): 100 to 5000 nM
IC50 (HEP 3B cells): 100 to 5000 nM
IC50 (Hep G2 cells): 100 to 5000 nM
IC50 (DU-145 cell line): 100 to 5000 nM
PAK4 total protein [2]: decrease
phosphorylation of PAK4 signaling proteins beta-catenin and cofilin [2]: decreases in phosphorylation
IC50 (MRC-5 cell line): < 100 nM
IC50 (MS751 cells): < 100 nM
IC50 (LoVo cell line): 100 to 5000 nM
IC50 (MM1S cell line): < 100 nM
IC50 (U2OS cell line): < 100 nM
IC50 (MDA-MB-468 cell line): 100 to 5000 nM
IC50 (NHDF cells): 100 to 5000 nM
IC50 (RPMI8226 cell line): 100 to 5000 nM
IC50 (3T3 cells): 100 to 5000 nM
IC50 (Colo-205 cell line): 100 to 5000 nM
IC50 (MDA-MB-231 cell line): 100 to 5000 nM
IC50 (DLD-1 cell line): 100 to 5000 nM

Reference: patent US9938258B2 (Karyopharm Therapeutics Inc., priority 2012, dated 2018)
